Data: patent US9546401B2, “Assays and methods for selecting a treatment regimen for a subject with depression” (The General Hospital Corporation, priority 2011, dated 2017)
Where two headings read alike, the source gives them in different places.

Key:
[1] = tested on: MDD patients, remitters at end of double-blind phase; details: for Relapsers (HAM-D-17 > 15) during 12-month maintenance phase: 15 mg/day as adjuvant
Experimental: During each visit, patients are administered the HAM-D-28, the CGI, the QIDS-SR, the SAFTEE-SI, the MGH-CPFQ, and the MGH-SFQ (See, e.g., Table 10 below). […] Subjects are also allowed to change their antidepressant during the course of the follow-up, if deemed appropriate. For patients who refuse the 12 months of free follow-up care, a referral to a psychiatrist is offered.

[2] = tested on: MDD patients carrying the indicated SNP
Excerpt: The term “prevalence” as used in FIG. 8B refers to the total percentage of MDD patients who carry the SNP as indicated in this particular study.

[3] = tested on: MDD patients positive or negative for SNP biomarkers; details: subjects positive for MTR 2756 AG or GG versus negative
Excerpt: A responder is indicated by a reduction of at least about 50% in HAMD-28 over the evaluation period.

[4] = CACNA1C rs1006737 (AG), genotype code 13
[5] = COMT (Val 158 Met) rs4680 (GG), genotype code 33
[6] = COMT (Val 158 rs4633 (CC), genotype code 22)
[7] = DAT (SLC6A3) rs250682 (CG), genotype code 33
[8] = DNMT3B rs1883729 (AG), genotype code 11/13
[9] = DNMT3B rs1883729 (AG), genotype code 11
[10] = DNMT3B rs1883729 (AG), genotype code 13
[11] = DRD2 (H313H) rs6275 (TT), genotype code 11
[12] = DRD2 (SLC26A9) rs11240594 (AG), genotype code 33
[13] = DRD2 (Taq1Br) rs1079596 (TC), genotype code 42/44
[14] = DRD2 (Taq1Br) rs1079596 (TC), genotype code 42
[15] = FDRC rs2277820 (TC), genotype code 22
[16] = GCH1 rs8007267 (TC), genotype code 42
[17] = GCHFR rs7163862 (TA), genotype code 41
[18] = GCPH or FOLH1 rs202676 (AG), genotype code 31
[19] = MTHFD 1 G1958A (R653Q) rs2236225 (AG), genotype code 33
[20] = MTHFR G1793A rs2274976 (GA), genotype code 42
[21] = PCYT1A rs7639752 (AA), genotype code 11
[22] = RCF1 (in SLC19A1) rs1051266 (AA), genotype code 44
[23] = RCF1 A > G rs2297291 (AA), genotype code 11
[24] = RCF2 (in SLC19A1) rs12659 (TT), genotype code 11

## CN1c2c(nc(N)[nH]c2=O)NC[C@@H]1CNc1ccc(C(=O)N[C@@H](CCC(=O)O)C(=O)O)cc1 [6(S)-5-MTHF, 6(S)-5-methyltetrahydrofolate]
[1]; Trial 1, 2 remitters entering maintenance
  Relapsers (HAM-D-17 > 15) during 12-month maintenance phase: 0
[1]; Trial 2, 9 remitters entering maintenance
  Relapsers (HAM-D-17 > 15) during 12-month maintenance phase: 0
[1]; remitters at end of double-blind phase, 15 mg/day adjunctive
  relapse during 12-month maintenance phase: did not have a relapse
[2]; [4]
  PHASE I EFFFCT, change in HAMD-28: −8.006
  PHASE II EFFFCT, change in HAMD-28: −2.467
  POOLED PHASES EFFFCT, change in HAMD-28: −4.633
[2]; [5]
  PHASE II EFFFCT, change in HAMD-28: −10.170
  POOLED PHASES EFFFCT, change in HAMD-28: −10.880
[2]; COMT (Val 158 Met) rs4680 (GG), genotype code 33, folate-containing compound + SSRI
  PHASE I EFFFCT, change in HAMD-28: −12.070
[2]; [6]
  PHASE I EFFFCT, change in HAMD-28: −10.070
  PHASE II EFFFCT, change in HAMD-28: −10.170
  POOLED PHASES EFFFCT, change in HAMD-28: −9.240
[2]; [7]
  PHASE I EFFFCT, change in HAMD-28: −5.722
  PHASE II EFFFCT, change in HAMD-28: −5.768
  POOLED PHASES EFFFCT, change in HAMD-28: −4.996
[2]; [8]
  PHASE I EFFFCT, change in HAMD-28: −6.340
  PHASE II EFFFCT, change in HAMD-28: −4.940
  POOLED PHASES EFFFCT, change in HAMD-28: −5.360
[2]; [9]
  PHASE I EFFFCT, change in HAMD-28: −2.318
  PHASE II EFFFCT, change in HAMD-28: −5.267
  POOLED PHASES EFFFCT, change in HAMD-28: −4.811
[2]; [10]
  PHASE I EFFFCT, change in HAMD-28: −8.097
  PHASE II EFFFCT, change in HAMD-28: −4.667
  POOLED PHASES EFFFCT, change in HAMD-28: −6.748
[2]; [11]
  PHASE I EFFFCT, change in HAMD-28: −16.560
  PHASE II EFFFCT, change in HAMD-28: 1.667
  POOLED PHASES EFFFCT, change in HAMD-28: −7.627
[2]; [12]
  PHASE I EFFFCT, change in HAMD-28: −5.018
  PHASE II EFFFCT, change in HAMD-28: −3.424
  POOLED PHASES EFFFCT, change in HAMD-28: −3.758
[2]; [13]
  PHASE I EFFFCT, change in HAMD-28: −10.640
  PHASE II EFFFCT, change in HAMD-28: −3.893
  POOLED PHASES EFFFCT, change in HAMD-28: −6.903
[2]; [14]
  PHASE I EFFFCT, change in HAMD-28: −10.640
  PHASE II EFFFCT, change in HAMD-28: −3.893
  POOLED PHASES EFFFCT, change in HAMD-28: −6.903
[2]; [15]
  PHASE I EFFFCT, change in HAMD-28: −2.634
  PHASE II EFFFCT, change in HAMD-28: −6.232
  POOLED PHASES EFFFCT, change in HAMD-28: −4.027
[2]; [16]
  PHASE I EFFFCT, change in HAMD-28: −7.729
  PHASE II EFFFCT, change in HAMD-28: −5.417
  POOLED PHASES EFFFCT, change in HAMD-28: −6.654
[2]; [17]
  PHASE I EFFFCT, change in HAMD-28: −6.280
  PHASE II EFFFCT, change in HAMD-28: −4.542
  POOLED PHASES EFFFCT, change in HAMD-28: −4.863
[2]; [18]
  PHASE I EFFFCT, change in HAMD-28: −7.314
  PHASE II EFFFCT, change in HAMD-28: −3.300
  POOLED PHASES EFFFCT, change in HAMD-28: −5.402
[2]; [19]
  PHASE I EFFFCT, change in HAMD-28: −2.742
  PHASE II EFFFCT, change in HAMD-28: −3.762
  POOLED PHASES EFFFCT, change in HAMD-28: −3.496
[2]; [20]
  PHASE I EFFFCT, change in HAMD-28: −5.333
  PHASE II EFFFCT, change in HAMD-28: 2.833
  POOLED PHASES EFFFCT, change in HAMD-28: −5.551
[2]; [21]
  PHASE I EFFFCT, change in HAMD-28: −10.400
  PHASE II EFFFCT, change in HAMD-28: −3.900
  POOLED PHASES EFFFCT, change in HAMD-28: −6.716
[2]; [22]
  PHASE I EFFFCT, change in HAMD-28: −10.000
  PHASE II EFFFCT, change in HAMD-28: −2.750
  POOLED PHASES EFFFCT, change in HAMD-28: −7.673
[2]; [23]
  PHASE I EFFFCT, change in HAMD-28: −8.778
  PHASE II EFFFCT, change in HAMD-28: −1.400
  POOLED PHASES EFFFCT, change in HAMD-28: −5.458
[2]; [24]
  PHASE I EFFFCT, change in HAMD-28: −7.571
  PHASE II EFFFCT, change in HAMD-28: −1.400
  POOLED PHASES EFFFCT, change in HAMD-28: −4.860
[3]
  treatment effect within genetic modifiers (race, age, sex, BMI): statistically significant treatment effect
